For 16 compounds, IC50 results are on record in US12577245B2, “Sulfonyl benzamide derivatives as Bcl-2 inhibitors” (ASCENTAGE PHARMA (SUZHOU) CO., LTD., priority 2021, dated 2026).

Like-named read-outs stand apart in the source and are kept apart here.

The assay addresses Bcl-2 G101V (Homo sapiens, UniProt P10415, G101V). In words: Bcl-2 G101V inhibition, fluorescence polarization (Flu-BIM tracer) binding assay. On the technique in general: Polarisation of emitted light reports the rotation of a fluorescent probe.
[1] abbreviates: FP, 20 nM Bcl2, 5 nM Flu-BIM, 1 h incubation, read-out: Bcl-2 G101V (FP).

Regarding `Cc1ccc(C2=C(CN3CCN(c4ccc(C(=O)NS(=O)(=O)c5ccc(NCC6CCOCC6)c([N+](=O)[O-])c5)c(Oc5cnc6[nH]ccc6c5)c4)CC3)CCC(C)(C)C2)s1` [Example 6, 2-((1H-pyrrolo[2,3-b]pyridin-5-yl)oxy)-4-(4-((4,4-dimethyl-2-(5-methylthiophen-2-yl)cyclohex-1-en-1-yl)methyl)piperazin-1-yl)-N-((3-nitro-4-(((tetrahydro-2H-pyran-4-yl)methyl)amino)phenyl)sulfonyl)benzamide], under setting [1], the IC50 worked out at 33.9 nM.

`CC1(C)CCC(CN2CCN(c3ccc(C(=O)NS(=O)(=O)c4ccc(NC[C@H]5COCCO5)c([N+](=O)[O-])c4)c(Oc4cnc5[nH]ccc5c4)c3)CC2)=C(c2cc(-c3ccc(Cl)cc3F)cs2)C1` [Example 44, (S)—N-((4-(((1,4-dioxan-2-yl)methyl)amino)-3-nitrophenyl)sulfonyl)-2-((1H-pyrrolo[2,3-b]pyridin-5-yl)oxy)-4-(4-((2-(4-(4-chloro-2-fluorophenyl)thiophen-2-yl)-4,4-dimethylcyclohex-1-en-1-yl)methyl)piperazin-1-yl)benzamide]: the IC50 under setting [1] was determined as 46.3 nM. For `CC1(C)CCC(CN2CCN(c3ccc(C(=O)NS(=O)(=O)c4ccc(NC[C@H]5COCCO5)c([N+](=O)[O-])c4)c(Oc4cnc5[nH]ccc5c4)c3)CC2)=C(c2cc(C(=O)Nc3ccccc3)cs2)C1` [Example 17, (S)-5-(2-((4-(4-(((4-(((1,4-dioxan-2-yl)methyl)amino)-3-nitrophenyl)sulfonyl)carbamoyl)-3-((1H-pyrrolo[2,3-b]pyridin-5-yl)oxy)phenyl)piperazin-1-yl)methyl)-5,5-dimethylcyclohex-1-en-1-yl)-N-phenylthiophene-3-carboxamide], the IC50 is 49.5 nM. Regarding `Cc1cscc1C1=C(CN2CCN(c3ccc(C(=O)NS(=O)(=O)c4ccc(NCC5CCOCC5)c([N+](=O)[O-])c4)c(Oc4cnc5[nH]ccc5c4)c3)CC2)CCC(C)(C)C1` [Example 2, 2-((1H-pyrrolo[2,3-b]pyridin-5-yl)oxy)-4-(4-((4,4-dimethyl-2-(4-methylthiophen-3-yl)cyclohex-1-en-1-yl)methyl)piperazin-1-yl)-N-((3-nitro-4-(((tetrahydro-2H-pyran-4-yl)methyl)amino)phenyl)sulfonyl)benzamide], the IC50 under setting [1] was 32.6 nM. On to `CC1(C)CCC(CN2CCN(c3ccc(C(=O)NS(=O)(=O)c4ccc(NCC5CCOCC5)c([N+](=O)[O-])c4)c(Oc4cnc5[nH]ccc5c4)c3)CC2)=C(c2cc(-c3ccccc3)cs2)C1` [Example 34, 2-((1H-pyrrolo[2,3-b]pyridin-5-yl)oxy)-4-(4-((4,4-dimethyl-2-(4-phenylthiophen-2-yl)cyclohex-1-en-1-yl)methyl)piperazin-1-yl)-N-((3-nitro-4-(((tetrahydro-2H-pyran-4-yl)methyl)amino)phenyl)sulfonyl)benzamide], for which the IC50 under setting [1] was found to be 47.9 nM. Regarding `CC1(C)CCC(CN2CCN(c3ccc(C(=O)NS(=O)(=O)c4ccc(NC[C@H]5CC[C@](C)(O)CC5)c([N+](=O)[O-])c4)c(Oc4cnc5[nH]ccc5c4)c3)CC2)=C(c2cc(-c3cc(F)c(F)cc3F)cs2)C1` [Example 53, 2-((1H-pyrrolo[2,3-b]pyridin-5-yl)oxy)-4-(4-((4,4-dimethyl-2-(4-(2,4,5-trifluorophenyl)thiophen-2-yl)cyclohex-1-en-1-yl)methyl)piperazin-1-yl)-N-((4-((((1r,4r)-4-hydroxy-4-methylcyclohexyl)methyl)amino)-3-nitrophenyl)sulfonyl)benzamide], the IC50 under setting [1] came out at 36.6 nM. `CC1(C)CCC(CN2CCN(c3ccc(C(=O)NS(=O)(=O)c4ccc(NC[C@H]5CC[C@](C)(O)CC5)c([N+](=O)[O-])c4)c(Oc4cnc5[nH]ccc5c4)c3)CC2)=C(c2cc(-c3ccc(C(C)(C)O)c(F)c3)cs2)C1` [Example 71, 2-((1H-pyrrolo[2,3-b]pyridin-5-yl)oxy)-4-(4-((2-(4-(3-fluoro-4-(2-hydroxypropan-2-yl)phenyl)thiophen-2-yl)-4,4-dimethylcyclohex-1-en-1-yl)methyl)piperazin-1-yl)-N-((4-((((1r,4r)-4-hydroxy-4-methylcyclohexyl)methyl)amino)-3-nitrophenyl)sulfonyl)benzamide]: the IC50 under setting [1] was found to be 20.3 nM. With `CC1(C)CCC(CN2CCN(c3ccc(C(=O)NS(=O)(=O)c4ccc(NC[C@H]5CC[C@](C)(O)CC5)c([N+](=O)[O-])c4)c(Oc4cnc5[nH]ccc5c4)c3)CC2)=C(c2cc(CN3CCOCC3)cs2)C1` [Example 24, 2-((1H-pyrrolo[2,3-b]pyridin-5-yl)oxy)-4-(4-((4,4-dimethyl-2-(4-(morpholinomethyl)thiophen-2-yl)cyclohex-1-en-1-yl)methyl)piperazin-1-yl)-N-((4-((((1r,4r)-4-hydroxy-4-methylcyclohexyl)methyl)amino)-3-nitrophenyl)sulfonyl)benzamide], under setting [1], the IC50 was 30.1 nM. As for `CC1(C)CCC(CN2CCN(c3ccc(C(=O)NS(=O)(=O)c4ccc(NC[C@H]5CC[C@](C)(O)CC5)c([N+](=O)[O-])c4)c(Oc4cnc5[nH]ccc5c4)c3)CC2)=C(c2cc3c(s2)CCN(c2ccc(F)cc2)C3)C1` [Example 16, 2-((1H-pyrrolo[2,3-b]pyridin-5-yl)oxy)-4-(4-((2-(5-(4-fluorophenyl)-4,5,6,7-tetrahydrothieno[3,2-c]pyridin-2-yl)-4,4-dimethylcyclohex-1-en-1-yl)methyl)piperazin-1-yl)-N-((4-((((1r,4r)-4-hydroxy-4-methylcyclohexyl)methyl)amino)-3-nitrophenyl)sulfonyl)benzamide], under setting [1], the IC50 amounted to 94.7 nM. The same measure, in the same setting: under `CC1(C)CCC(CN2CCN(c3ccc(C(=O)NS(=O)(=O)c4ccc(NC[C@H]5CC[C@](C)(O)CC5)c([N+](=O)[O-])c4)c(Oc4cnc5[nH]ccc5c4)c3)CC2)=C(c2cc(-c3c(F)cc(C(C)(C)CO)cc3F)cs2)C1` [Example 74, 2-((1H-pyrrolo[2,3-b]pyridin-5-yl)oxy)-4-(4-((2-(4-(2,6-difluoro-4-(1-hydroxy-2-methylpropan-2-yl)phenyl)thiophen-2-yl)-4,4-dimethylcyclohex-1-en-1-yl)methyl)piperazin-1-yl)-N-((4-((((1r,4r)-4-hydroxy-4-methylcyclohexyl)methyl)amino)-3-nitrophenyl)sulfonyl)benzamide] stands 30.2 nM.

For `CC1(C)CCC(CN2CCN(c3ccc(C(=O)NS(=O)(=O)c4ccc(NC[C@H]5CC[C@](C)(O)CC5)c([N+](=O)[O-])c4)c(Oc4cnc5[nH]ccc5c4)c3)CC2)=C(c2cc(-c3ccc(C(F)F)cc3)cs2)C1` [Example 49, 2-((1H-pyrrolo[2,3-b]pyridin-5-yl)oxy)-4-(4-((2-(4-(4-(difluoromethyl)phenyl)thiophen-2-yl)-4,4-dimethylcyclohex-1-en-1-yl)methyl)piperazin-1-yl)-N-((4-((((1r,4r)-4-hydroxy-4-methylcyclohexyl)methyl)amino)-3-nitrophenyl)sulfonyl)benzamide], under setting [1], the IC50 amounted to 43.6 nM. As to `CC1(C)CCC(CN2CCN(c3ccc(C(=O)NS(=O)(=O)c4ccc(NC[C@H]5CC[C@](C)(O)CC5)c([N+](=O)[O-])c4)c(Oc4cnc5[nH]ccc5c4)c3)CC2)=C(c2cc(-c3ccc4c(c3)CCC4(C)O)cs2)C1` (stereo partly shown) [Example 79, 2-((1H-pyrrolo[2,3-b]pyridin-5-yl)oxy)-4-(4-((2-(4-(1-hydroxy-1-methyl-2,3-dihydro-1H-inden-5-yl)thiophen-2-yl)-4,4-dimethylcyclohex-1-en-1-yl)methyl)piperazin-1-yl)-N-((4-((((1r,4r)-4-hydroxy-4-methylcyclohexyl)methyl)amino)-3-nitrophenyl)sulfonyl)benzamide], under setting [1], the IC50 amounted to 22.1 nM.

Take `CC(C)c1ccccc1-c1csc(C2=C(CN3CCN(c4ccc(C(=O)NS(=O)(=O)c5ccc(NC[C@H]6COCCO6)c([N+](=O)[O-])c5)c(Oc5cnc6[nH]ccc6c5)c4)CC3)CCC(C)(C)C2)c1` [Example 39, (S)—N-((4-(((1,4-dioxan-2-yl)methyl)amino)-3-nitrophenyl)sulfonyl)-2-((1H-pyrrolo[2,3-b]pyridin-5-yl)oxy)-4-(4-((2-(4-(2-isopropylphenyl)thiophen-2-yl)-4,4-dimethylcyclohex-1-en-1-yl)methyl)piperazin-1-yl)benzamide]: under setting [1], the IC50 was 36 nM. On the same count and under the same terms, the same measure for `CC1(C)CCC(CN2CCN(c3ccc(C(=O)NS(=O)(=O)c4ccc(NC[C@H]5COCCO5)c([N+](=O)[O-])c4)c(Oc4cnc5[nH]ccc5c4)c3)CC2)=C(c2cc(-c3ccc(Cl)cc3)cs2)C1` [Example 38, (S)—N-((4-(((1,4-dioxan-2-yl)methyl)amino)-3-nitrophenyl)sulfonyl)-2-((1H-pyrrolo[2,3-b]pyridin-5-yl)oxy)-4-(4-((2-(4-(4-chlorophenyl)thiophen-2-yl)-4,4-dimethylcyclohex-1-en-1-yl)methyl)piperazin-1-yl)benzamide]: 35.4 nM; for `CC1(C)CCC(CN2CCN(c3ccc(C(=O)NS(=O)(=O)c4ccc(NC[C@H]5COCCO5)c([N+](=O)[O-])c4)c(Oc4cnc5[nH]ccc5c4)c3)CC2)=C(c2cc(NC(=O)c3ccccc3)cs2)C1` [Example 18, (S)—N-((4-(((1,4-dioxan-2-yl)methyl)amino)-3-nitrophenyl)sulfonyl)-2-((1H-pyrrolo[2,3-b]pyridin-5-yl)oxy)-4-(4-((2-(4-benzamidothiophen-2-yl)-4,4-dimethylcyclohex-1-en-1-yl)methyl)piperazin-1-yl)benzamide]: 66.3 nM; for `CC1(C)CCC(CN2CCN(c3ccc(C(=O)NS(=O)(=O)c4ccc(NC[C@H]5COCCO5)c([N+](=O)[O-])c4)c(Oc4cnc5[nH]ccc5c4)c3)CC2)=C(c2cc(CN3CCOCC3)cs2)C1` [Example 22, (S)—N-((4-(((1,4-dioxan-2-yl)methyl)amino)-3-nitrophenyl)sulfonyl)-2-((1H-pyrrolo[2,3-b]pyridin-5-yl)oxy)-4-(4-((4,4-dimethyl-2-(4-(morpholinomethyl)thiophen-2-yl)cyclohex-1-en-1-yl)methyl)piperazin-1-yl)benzamide]: 42.8 nM.
